Like-named read-outs stand apart in the source and are kept apart here. Values belong to the compound of their own block, whether it stands above or below them.
Columns and labels:
[1] = Tacrolimus whole blood pharmacokinetics (LC-MS-MS) after SC Composition A; type: in vivo, human; conditions: for Tacrolimus blood trough levels: 0.01 ml/kg dose group; for AUC / Cmax / Tmax / half-life: human, whole blood; for AUC: read-out: Tacrolimus AUCtau (GM); for Cmax: read-out: Tacrolimus Cmax (GM)
Method: Tacrolimus. Blood samples were obtained from all subjects in parallel as for plerixafor. Whole blood from each sample was stored in −80° C. condition until shipment. The analysis of K2EDTA whole blood for the quantitation of tacrolimus using a validated method by LC-MS-MS was performed by Worldwide Clinical Trials, Bioanalytical Services (Austin, TX, USA) in compliance with principles of GLP standards as referenced above.
Study data were collected and similar pharmacokinetic parameters as above were calculated using Analyst® (Version 1.4.2 or 1.6.1, Applied Biosystems/MDS Sciex) and evaluated with Watson Laboratory Information Management System™ (LIMS; Version 7.2.0.03, Thermo Fisher Scientific) software.

[2] = in vivo
[3] = test system: cell migration stimulated by CXCL12; conditions: cited from earlier work
[4] = clinical; conditions: human, in vivo
[5] = test system: CD34+HSCs; conditions: cited from earlier work
[6] = sc, 0.005 mL/kg, Composition A 0.005 mL/kg SC QAD, Day 5
[7] = sc, 0.005 mL/kg, Composition A 0.005 mL/kg SC, Day 1
[8] = sc, 0.01 mL/kg, Composition A 0.01 mL/kg SC QAD, Day 5
[9] = sc, 0.01 mL/kg, Composition A 0.01 mL/kg SC, Day 1
[10] = sc, 0.02 mL/kg, Composition A 0.02 mL/kg SC QAD, Day 5
[11] = sc, 0.02 mL/kg, Composition A 0.02 mL/kg SC, Day 1

Tacrolimus blood trough levels ([1]; day 1): less than 2 ng/ml
Tacrolimus blood trough levels ([1]; day 5): < 3 ng/mL
Tacrolimus Cmax and AUC versus dose ([1]; Composition A 0.005, 0.01, 0.02 mL/kg, Day 1 and QAD for 5 days): increased in a dose-proportional manner
Tacrolimus Ctrough (GM) ([1]; Composition A 0.005 mL/kg SC QAD, Day 5): 0.88 ng/mL
Tacrolimus Ctrough (GM) ([1]; Composition A 0.005 mL/kg SC, Day 1): 0.57 ng/mL
Tacrolimus median Ctrough ([1]; Composition A 0.005 mL/kg, Day 1): 0.58 ng/mL
Tacrolimus Ctrough ([1]; Composition A 0.005 mL/kg, Day 5): 0.90 ng/mL
Tacrolimus Ctrough (GM) ([1]; Composition A 0.01 mL/kg SC QAD, Day 5): 1.89 ng/mL
Tacrolimus Ctrough (GM) ([1]; Composition A 0.01 mL/kg SC, Day 1): 1.45 ng/mL
Tacrolimus median Ctrough ([1]; Composition A 0.01 mL/kg, Day 1): 1.48 ng/mL
Tacrolimus Ctrough ([1]; Composition A 0.01 mL/kg, Day 5): 1.99 ng/mL
Tacrolimus Ctrough (GM) ([1]; Composition A 0.02 mL/kg SC QAD, Day 5): 2.94 ng/mL
Tacrolimus Ctrough (GM) ([1]; Composition A 0.02 mL/kg SC, Day 1): 2.12 ng/mL
Tacrolimus median Ctrough ([1]; Composition A 0.02 mL/kg, Day 1): 2.24 ng/mL
Tacrolimus Ctrough ([1]; Composition A 0.02 mL/kg, Day 5): 3.19 ng/mL
AUC [1, 6]: 70.1 ng·h/mL
Cmax [1, 6]: 2.09 ng/mL
Tmax ([1]; sc, 0.005 mL/kg, Composition A 0.005 mL/kg SC QAD, Day 5, read-out: Tacrolimus Tmax (Median)): 10 h
half-life ([1]; sc, 0.005 mL/kg, Composition A 0.005 mL/kg SC QAD, Day 5, read-out: Tacrolimus t1/2 (GM) (converted)): 24.9 h
AUC [1, 7]: 46.4 ng·h/mL
Cmax [1, 7]: 1.47 ng/mL
Tmax ([1]; sc, 0.005 mL/kg, Composition A 0.005 mL/kg SC, Day 1, read-out: Tacrolimus Tmax (Median)): 7.5 h
half-life ([1]; sc, 0.005 mL/kg, Composition A 0.005 mL/kg SC, Day 1, read-out: Tacrolimus t1/2 (GM) (converted)): 23.8 h
AUC [1, 8]: 171 ng·h/mL
Cmax [1, 8]: 5.37 ng/mL
Tmax ([1]; sc, 0.01 mL/kg, Composition A 0.01 mL/kg SC QAD, Day 5, read-out: Tacrolimus Tmax (Median)): 5.5 h
half-life ([1]; sc, 0.01 mL/kg, Composition A 0.01 mL/kg SC QAD, Day 5, read-out: Tacrolimus t1/2 (GM) (converted)): 29.5 h
AUC [1, 9]: 105 ng·h/mL
Cmax [1, 9]: 3.15 ng/mL
Tmax ([1]; sc, 0.01 mL/kg, Composition A 0.01 mL/kg SC, Day 1, read-out: Tacrolimus Tmax (Median)): 12 h
half-life ([1]; sc, 0.01 mL/kg, Composition A 0.01 mL/kg SC, Day 1, read-out: Tacrolimus t1/2 (GM) (converted)): 37.8 h
AUC [1, 10]: 237 ng·h/mL
Cmax [1, 10]: 7.91 ng/mL
Tmax ([1]; sc, 0.02 mL/kg, Composition A 0.02 mL/kg SC QAD, Day 5, read-out: Tacrolimus Tmax (Median)): 2 h
half-life ([1]; sc, 0.02 mL/kg, Composition A 0.02 mL/kg SC QAD, Day 5, read-out: Tacrolimus t1/2 (GM) (converted)): 30.6 h
AUC [1, 11]: 152 ng·h/mL
Cmax [1, 11]: 4.49 ng/mL
Tmax ([1]; sc, 0.02 mL/kg, Composition A 0.02 mL/kg SC, Day 1, read-out: Tacrolimus Tmax (Median)): 8.01 h
half-life ([1]; sc, 0.02 mL/kg, Composition A 0.02 mL/kg SC, Day 1, read-out: Tacrolimus t1/2 (GM) (converted)): 36.4 h
half-life ([1]; subcutaneous, Composition A 0.005, 0.01, 0.02 mL/kg, Days 1 and 5, read-out: Tacrolimus GM t1/2): 24 to 38 h
Tmax ([1]; subcutaneous, single dose Day 1 and QAD dosing for 5 days, all doses, read-out: Tacrolimus median Tmax): 2 to 12 h
Mean tacrolimus trough levels ([1]; intermediate dose of MRG-001 (0.01 mL/kg)): 1.8 ng/mL
Mean tacrolimus trough levels ([1]; lowest dose of MRG-001 (0.005 ml/kg)): 0.8 ng/mL
Peak levels of tacrolimus ([1]; middle dose cohort (FIG. 1C)): 2 to 3 ng/mL
Compound: C=CC[C@@H]1/C=C(\C)C[C@H](C)C[C@H](OC)[C@H]2O[C@@](O)(C(=O)C(=O)N3CCCC[C@H]3C(=O)O[C@H](/C(C)=C/[C@@H]3CC[C@@H](O)[C@H](OC)C3)[C@H](C)[C@@H](O)CC1=O)[C@H](C)C[C@@H]2OC [Tacrolimus]

Plerixafor median time to Cmax ([2]; human): 1 to 3 h
Plerixafor elimination ([2]; human, 48 h): fully eliminated at 48 hours
Plerixafor Cmax and AUC versus dose [2]: increased in a dose-proportional manner
half-life ([4]; Plerixafor geometric mean t1/2): 3 to 6 h
half-life ([4]; sc, Plerixafor t1/2 (GM)): 3.29 h
Compound: c1cc(CN2CCCNCCNCCCNCC2)ccc1CN1CCCNCCNCCCNCC1 [Plerixafor, 1,1′-[1,4-phenylenebis(methylene)]bis-1,4,8,11-tetraazacyclo-tetradecane]
IC50 [3]: 51 ± 17 nM
Peak CD34+ ([5]; high dose plerixafor (0.48 mg/kg)): 32.2 c/μL
CD34+HSCs mobilized at peak levels ([5]; normal dose of plerixafor (0.24 mg/kg)): 27.8 µL⁻¹

Reference: patent US20250017912A1, “METHODS FOR DOWN-REGULATION AND UP-REGULATION OF PATHWAYS” (MedRegen, LLC, priority 2023, published 2025)
